Data from US8613948B2, “Treatment of faecal incontinence and other conditions with 1R, 2S-methoxamine” (Norgine BV, priority 2001, dated 2013).
pEC50: −log10 of the molar value. Where two headings read alike, the source gives them in different places.

Assays:
[1] = test system: pig internal anal sphincter muscle; experiment: In vitro contraction of internal anal sphincter muscle strips in superfusion organ bath; assay type: cell-based; conditions: for pEC50 / EC50: Sus scrofa; for pEC50: IAS smooth muscle strips, n=24(4), read-out: EC50 values; for EC50: pig IAS strips, Table 1, read-out: EC50 value μM (±SE); for contraction of smooth muscle strips from the IAS: dose range 10^−2M to 10^−8M
Procedure: Tissue was obtained from female Large White pigs from a local abattoir. Pieces of internal anal sphincter muscle were cut and the tissue was transferred immediately to Krebs solution at 4° C. (120 mM NaCl, 5.9 mM KCl, 15.4 mM Na2HCO3, 1.2 mM NaH2PO4, 2.5 mM CaCl2, 1.2 mM MgCl2, 11.5 mM glucose, equilibrated with 97% oxygen and 3% carbon dioxide to maintain the pH at 7.4±0.05). The epithelium of the anal canal was removed along with the submucosa. Strips of the internal anal sphincter (IAS) were cut, each measuring approximately 1×1×7 mm, weighing 2 mg to 8 mg and containing parallel muscle bundles. Fine 5-0 silk ligatures were tied to each end and the strips mounted for isometric tension recording in superfusion organ baths (capacity 0.2 ml)^19 as shown in FIG. 1. The muscle strip 1 is held by a thread 2 to secure it in position within the Perspex jacket 3. The strips were perfused continuously with Krebs solution (37° C.) at a rate of 1 ml/min introduced via an inflow 4 and exiting via an overflow 5. This apparatus allows six strips to be studied simultaneously. The strips were initially loaded with 1 g tension and allowed to equilibrate for at least 90 minutes. Tension was measured by Pioden dynamometer UF1 transducer (Pioden Controls, Canterbury, UK) involving a tension transducer 6 and ring electrodes 7 and 7a, and recorded both on a six channel Tekman 900 pen recorder (Tekman Electronics, Learnington Spa, UK) and using Chart v3.6 and MacLab Data Acquisition System (AD Instruments, Australia).
Phenylephrine (Sigma Chemical Co., Poole, UK), methoxamine racemate and the four methoxamine isomers were dissolved in Krebs solution and tested for their effect on IAS tone. Methoxamine racemate, that is to say, an equimolar mixture of the four isomers, was produced by Prosyth Limited, Acton, Sudbury, Suffolk. The four isomers (called peaks 1 to 4), were separated as described in Example 3. Peak 2 is 1R,2S-methoxamine. The 1R,2S isomer was also synthesised as described in Example 4. It has been confirmed by crystallography that peak 2 is 1R,2S-methoxamine.
IAS strips developed intrinsic tone during the equilibrium period. After equilibration increasing concentrations of each of the test compounds were added for 20 second periods, with intervening washout periods of at least ten minutes, until the tone had returned to baseline.
Results are expressed as mean (standard error of the mean) and the number of surgical specimens from which these strips were derived. A maximum of six strips were used from each pig for each test compound.
Test compound-induced increases in tone were calculated by taking the peak tone after application of the test compound and […]. This figure was then expressed as a percentage of maximal increase in tone seen across the dose range used (10^−2M to 10^−8M). All analysis was performed using Chart v3.6 software.
EC50 values were calculated by plotting concentration-response curves for each muscle strip. The dose causing 50% of maximal contraction was calculated by linear regression. EC50 values for different drugs were compared using a two-tailed t-test, assuming unequal variance and with p<0.05 considered significant.

[2] = test system: patients with incontinence; conditions: cited from earlier work
human subjects = conditions: cited from earlier work

Compound: COc1ccc(OC)c(C(O)C(C)N)c1 (racemic) [methoxamine racemate, 2-amino-1-(2,5-dimethoxyphenyl)-1-propanol]
- pEC50 [1]: 7.24
- EC50 [1]: 58.3 µM
- contraction of smooth muscle strips from the IAS [1]: caused a dose-dependent contraction

Compound: CNC[C@H](O)c1cccc(O)c1 [Phenylephrine]
- subjective improvement in continence ([2]; 10% gel, patients with faecal leakage after ileoanal pouch construction): significantly greater subjective improvement in continence compared to placebo
- incontinence scores, resting anal canal pressure or anodermal blood flow ([2]; 10% gel, randomised controlled trial, 36 patients with incontinence): no significant overall improvements
- local side effect ([2]; topical preparations of the order of 30-40% by weight): perianal burning has been reported
- duration of rise in resting anal pressure (median) (human subjects; 10% gel, normal human subjects): 7 h
- rise in resting anal pressure (human subjects; 10% to 20% by weight gels, patients with low resting pressures and incontinence): no significant rise in resting anal pressure
- rise in resting anal pressure (human subjects; 30% and 40% gels, patients with low resting pressures and incontinence): increases did achieve statistical significance
- rise in resting anal pressure (human subjects; gel comprising 10% by weight, applied to the anus of normal human subjects): 33%
- pEC50 [1]: 4.12
- EC50 [1]: 74.7 µM
- contraction of smooth muscle strips from the IAS [1]: caused a dose-dependent contraction
